From patent US20190031624A1, “THERAPEUTIC COMPOUNDS AND METHODS TO TREAT INFECTION” (priority 2017, published 2019)
Values after ≈ are worked out from the molar mass of the structure shown. Where a name gives a salt, the structure may show the parent alone. Read-outs that look alike come from different tables or passages of the source.

What was measured:
P. aeruginosa PAO1 [1] = assay: Intrinsic MIC assay (CLSI broth microdilution); format: cell-based, Pseudomonas aeruginosa; conditions: for MIC: Pseudomonas aeruginosa, read-out: Antibiotic Activity Against P. aeruginosa: Intrinsic MIC
Protocol: (§1) MIC assays were conducted in accordance with Clinical and Laboratory Standards Institute (CLSI) guidelines for broth microdilution. A 96-well plate containing cation-adjusted Mueller-Hinton (CAMH broth with 2-fold serial dilution of compounds was inoculated with log-phase bacterial at 5×10^5 CFU/mL. The final volume in each well was 100 μL. Each compound was tested in duplicate. The microtiter plates were incubated in an aerobic environment for 18 hours at 37° C. Then the bacterial growth was tested by reading the plate with a VersaMax plate reader (Molecular Devices, Inc.) at 600 nm. The MIC was defined as the lowest compound concentration that inhibited 90% of bacteria growth.
(§2) Pseudomonas aeruginosa PAO1

P. aeruginosa PAO1 [2] = assay: MIC assay in the presence of a bacterial efflux pump inhibitor (EPI); format: cell-based, Pseudomonas aeruginosa; conditions: with 12.5 ug/ml of EPI (2S,4R)-4-(ammoniomethyl)-2-((6-(4-fluorophenyl)-1H-indole-2-carboxamido)methyl)pyrrolidin-1-ium, MIC90
Protocol: (§3) The ability of a compound to produce an antibiotic effect can be determined using a method as described in Example 21. Data for representative compounds used in combination with the efflux pump inhibitor [(2S,4R)-4-(ammoniomethyl)-2-((6-(4-fluorophenyl)-1H-indole-2-carboxamido)methyl)pyrrolidin-1-ium] is shown in Table 1.
as §1, §2
(§4) The EPI assay for the purposes of these studies represents a MIC assay in which the MIC of the antibiotic against the bacteria is tested in the presence of an experimental efflux pump inhibitor (EPI). The highest concentration of the EPI present in the assay typically is ½ of the intrinsic MIC of the compound. If the intrinsic MIC of the EPI is greater than 100 μg/mL, the EPI assay was tested with 50 μg/mL. Using serial dilutions of the EPI, its enhancement of antibiotic activity was then evaluated. The relative EPI activity was decided by comparing the MIC of the antibiotic in the presence of the EPI compound with the intrinsic MIC of the antibiotic alone. For comparative purposes, we generally used EPIs at concentration of 12.5 and 6.25 μg/ml against varying concentration of our test antibiotic.

E. coli 25922 [3] = assay: Intrinsic MIC assay (CLSI broth microdilution); format: cell-based, Escherichia coli; conditions: for MIC: read-out: Antibiotic Activity Against E. coli: Intrinsic MIC
Protocol: as §1
(§5) Escherichia coli ATCC 25922

E. coli 25922 [4] = assay: MIC assay in the presence of a bacterial efflux pump inhibitor (EPI); format: cell-based, Escherichia coli; conditions: with 12.5 ug/ml of EPI (2S,4R)-4-(ammoniomethyl)-2-((6-(4-fluorophenyl)-1H-indole-2-carboxamido)methyl)pyrrolidin-1-ium, MIC90
Protocol: as §3, §1, §5, §4

MreB = conditions: P. aeruginosa strains with defective efflux transporters; cited from earlier work
[5] = target: T1, MexAB-OprM efflux transporter (Pseudomonas aeruginosa, UniProt P52002); conditions: wild-type P. aeruginosa; cited from earlier work
T1 construct: MexAB-OprM efflux transporter present in wild-type P. aeruginosa; endogenous in cells; host or cells: wild-type P. aeruginosa

[6] = 18 h, P. aeruginosa PAO1, without EPI, MIC90
[7] = Escherichia coli, 18 h, E. coli 25922, without EPI, MIC90

T1 sequence (Q51487 18-485): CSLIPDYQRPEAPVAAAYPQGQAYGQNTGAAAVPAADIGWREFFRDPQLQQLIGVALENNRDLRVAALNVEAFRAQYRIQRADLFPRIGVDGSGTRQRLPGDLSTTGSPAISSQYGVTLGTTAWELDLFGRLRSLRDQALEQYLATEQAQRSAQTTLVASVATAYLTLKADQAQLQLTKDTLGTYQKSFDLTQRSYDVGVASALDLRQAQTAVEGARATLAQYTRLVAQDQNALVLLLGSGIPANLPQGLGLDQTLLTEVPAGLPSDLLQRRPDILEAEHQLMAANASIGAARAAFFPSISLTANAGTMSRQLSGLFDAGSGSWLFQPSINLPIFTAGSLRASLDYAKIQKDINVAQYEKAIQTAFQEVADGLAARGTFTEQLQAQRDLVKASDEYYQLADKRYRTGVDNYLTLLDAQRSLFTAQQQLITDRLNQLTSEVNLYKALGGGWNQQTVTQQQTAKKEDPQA
T1 sequence (P52477 24-383, further chain): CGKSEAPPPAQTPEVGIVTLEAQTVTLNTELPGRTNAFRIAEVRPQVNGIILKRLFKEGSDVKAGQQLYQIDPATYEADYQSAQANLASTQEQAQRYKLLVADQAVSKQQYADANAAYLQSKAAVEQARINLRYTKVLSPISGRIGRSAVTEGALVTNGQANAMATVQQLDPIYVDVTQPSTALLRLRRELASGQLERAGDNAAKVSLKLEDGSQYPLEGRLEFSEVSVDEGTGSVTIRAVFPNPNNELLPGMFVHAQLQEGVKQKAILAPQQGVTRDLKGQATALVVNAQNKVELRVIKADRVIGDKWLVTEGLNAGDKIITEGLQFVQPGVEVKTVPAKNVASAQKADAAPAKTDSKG
T1 sequence (P52002 whole entry): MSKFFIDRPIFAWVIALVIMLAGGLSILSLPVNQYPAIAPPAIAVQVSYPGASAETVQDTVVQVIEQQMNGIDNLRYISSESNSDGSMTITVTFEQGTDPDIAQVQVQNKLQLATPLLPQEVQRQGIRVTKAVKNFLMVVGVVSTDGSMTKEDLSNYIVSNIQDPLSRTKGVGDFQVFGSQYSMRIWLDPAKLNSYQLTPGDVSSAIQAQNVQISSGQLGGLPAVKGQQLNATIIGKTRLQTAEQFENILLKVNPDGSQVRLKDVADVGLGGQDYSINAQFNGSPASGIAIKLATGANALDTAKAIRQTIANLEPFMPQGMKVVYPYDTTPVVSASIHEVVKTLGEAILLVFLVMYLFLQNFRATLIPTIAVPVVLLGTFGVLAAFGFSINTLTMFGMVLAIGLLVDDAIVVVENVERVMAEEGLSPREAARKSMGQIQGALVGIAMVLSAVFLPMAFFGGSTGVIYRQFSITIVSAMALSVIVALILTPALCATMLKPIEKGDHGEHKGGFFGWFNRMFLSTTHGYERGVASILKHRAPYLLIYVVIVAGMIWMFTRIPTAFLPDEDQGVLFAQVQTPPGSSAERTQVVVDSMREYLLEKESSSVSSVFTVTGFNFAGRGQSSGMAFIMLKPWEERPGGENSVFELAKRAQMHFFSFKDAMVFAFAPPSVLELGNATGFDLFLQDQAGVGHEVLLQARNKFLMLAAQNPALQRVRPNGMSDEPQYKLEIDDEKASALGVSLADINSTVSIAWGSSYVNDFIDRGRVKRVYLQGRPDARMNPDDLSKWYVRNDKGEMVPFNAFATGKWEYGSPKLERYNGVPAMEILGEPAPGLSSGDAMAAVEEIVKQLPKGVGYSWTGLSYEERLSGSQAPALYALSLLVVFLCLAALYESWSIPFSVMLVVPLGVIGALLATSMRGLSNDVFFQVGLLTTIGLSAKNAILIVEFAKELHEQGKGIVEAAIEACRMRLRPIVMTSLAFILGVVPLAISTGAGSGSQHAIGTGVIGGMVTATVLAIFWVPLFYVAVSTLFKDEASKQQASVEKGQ

Compound	MIC (P. aeruginosa PAO1 [1]; [6]) [µg/mL]	Antibiotic Activity Against P. aeruginosa: MIC with EPI (Enhancement) (P. aeruginosa PAO1 [2]) [µg/mL]	MIC (E. coli 25922 [3]; [7]) [µg/mL]	Antibiotic Activity Against E. coli: MIC with EPI (Enhancement) (E. coli 25922 [4]) [µg/mL]	MreB inhibition (MreB)	efflux transporter substrate [5]	Antibiotic Activity Against P. aeruginosa: Intrinsic MIC (P. aeruginosa PAO1 [1]; P. aeruginosa PAO1, without EPI, MIC90) [μ/mL]	Antibiotic Activity Against E. coli: Intrinsic MIC (E. coli 25922 [3]; E. coli 25922, without EPI, MIC90) [µg/mL]	MIC (P. aeruginosa PAO1 [1]; PAO1, 18 h) [µg/mL]	MIC (E. coli 25922 [3]; Escherichia coli, 25922, 18 h) [µg/mL]
N=C(N)SCc1ccc(Cl)c(Cl)c1 [Example A22, S-(3,4-Dichlorobenzyl)isothiourea]					effective MreB inhibitor	substrate for the MexAB-OprM efflux transporter				
N=C(N)SCCc1ccc(Cl)c(Cl)c1 [Example 4, 3,4-dichlorophenethyl carbamimidothioate]	> 256	>256	256 (≈ 1030 µM)	256						
Isoquinolin-5-ylmethyl Carbamimidothioate Hydrobromide [Example 20]		>256		>256			>256	>256		
Br.CC(SC(=N)N)c1ccc(Cl)c(Cl)c1 (stereo not shown) [Example 5, 1-(3,4-Dichlorophenyl)ethyl Carbamimidothioate Hydrobromide]	> 256	4.0	256	256						
N=C(N)SCc1cccc(Br)c1 [Example 8, 3-bromobenzyl Carbamimidothioate Hydrobromide]		>256		>256					> 256	> 256
CNC(=N)SCc1ccc(Cl)c(Cl)c1.Cl [Example 6, 3,4-dichlorobenzyl Methylcarbamimidothioate Hydrobromide]	> 256	4.0	> 256	>256						
N=C(N)SCc1ccc(C(F)(F)F)nc1 [Example 14, (6-(trifluoromethyl)pyridin-3-yl)methyl Carbamimidothioate Hydrochloride]		>256		>256					> 256	> 256
Br.N=C(N)SCc1ccc(Cl)cc1Cl [Example 2, 2,4-Dichlorobenzyl Carbamimidothioate Hydrobromide]	> 256	1.0	> 256	>256						
Cl.N=C(N)SCc1ccc(Cl)c(Cl)c1 [Example 1, 3,4-Dichlorobenzyl Carbamimidothioate Hydrobromide]	> 256	0.5	64	4						
Br.CC(C)(C)c1ccc(CSC(=N)N)cc1 [Example 3, 4-(t-Butyl)Benzyl Carbamimidothioate Hydrobromide]	> 256	256	256	256						

Continued, in another order:

MIC (P. aeruginosa PAO1 [1]; [6]) [µg/mL]	Antibiotic Activity Against P. aeruginosa: MIC with EPI (Enhancement) (P. aeruginosa PAO1 [2]) [µg/mL]	MIC (E. coli 25922 [3]; [7]) [µg/mL]	Antibiotic Activity Against E. coli: MIC with EPI (Enhancement) (E. coli 25922 [4]) [µg/mL]	Compound	MreB inhibition (MreB)	efflux transporter substrate [5]	Antibiotic Activity Against P. aeruginosa: Intrinsic MIC (P. aeruginosa PAO1 [1]; P. aeruginosa PAO1, without EPI, MIC90) [μ/mL]	Antibiotic Activity Against E. coli: Intrinsic MIC (E. coli 25922 [3]; E. coli 25922, without EPI, MIC90) [µg/mL]	MIC (P. aeruginosa PAO1 [1]; PAO1, 18 h) [µg/mL]	MIC (E. coli 25922 [3]; Escherichia coli, 25922, 18 h) [µg/mL]
> 256	>256	64	64	Br.N=C(N)SCc1ccc(-c2ccc(F)cc2)cc1 [Example 9, (4′-fluoro-[1,1′-biphenyl]-4-yl)methyl Carbamimidothioate Hydrobromide]						
> 256	4	> 256	>256	N=C(N)SCc1ccc2sccc2c1 [Example 16, Benzo[b]thiophen-5-ylmethyl Carbamimidothioate Hydrobromide]						
> 256	1.0	> 256	>256	Br.N=C(N)SCc1ccc(Br)cc1 [Example 7, 4-Bromobenzyl Carbamimidothioate Hydrobromide]						
> 256	>256	> 256	>256	Br.N=C(N)SCc1cccc2cccnc12 [Example 19, quinolin-8-ylmethyl Carbamimidothioate Hydrobromide]						
> 256	>256	64	64	N=C(N)SCc1cccc(-c2ccc(F)cc2)c1 [Example 10, (4′-fluoro-[1,1′-biphenyl]-3-yl)methyl Carbamimidothioate Hydrobromide]						
16	4	> 256	>256	N=C(N)SCc1ccc2occc2c1 [Example 15, benzofuran-5-ylmethyl Carbamimidothioate Hydrobromide]						
> 256	16	> 256	16	CN1CN=C(SCc2ccc3ccccc3c2)NC1 [Example 13, 3-methyl-6-((naphthalen-2-ylmethyl)thio)-1,2,3,4-tetrahydro-1,3,5-triazine]						
> 256	>256	> 256	>256	N=C(N)SCc1cccc2ccccc12 [Example 11, naphthalen-1-ylmethyl Carbamimidothioate Hydrobromide]						
> 256	4	> 256	16	Cl.N=C(N)SCc1ccc2ccccc2c1 [Example 12, naphthalen-2-ylmethyl Carbamimidothioate Hydrobromide]						
> 256	>256	> 256	>256	N=C(N)SCc1ccc2ncccc2c1 [Example 18, quinolin-6-ylmethyl Carbamimidothioate Hydrobromide]						
> 256	>256	> 128	128	CC(C)(C)OC(=O)n1ccc2cc(CSC(=N)N)ccc21 [Example 17, t-Butyl 5-((carbamimidoylthio)methyl)-1H-indole-1-carboxylate]						
